Our source for the Activity values is ChEMBL document CHEMBL2062393, “Drugs for stroke: action of nitrone (Z)-N-(2-bromo-5-hydroxy-4-methoxybenzylidene)-2-methylpropan-2-amine oxide on rat cortical neurons in culture subjected to oxygen-glucose-deprivation” (Eur J Med Chem, 2012).

What all share (assay type): functional
In experiment [1] the test system is Cortical neurone. As to the kind of experiment: Neuroprotective activity against Wistar rat Cortical neurons assessed as reduction of oxygen-glucose-deprivation-induced lipid peroxidation at 1 uM treated during reperfusion measured after 24 hrs by TBARS method.
Experiment [2] has as its system Cortical neurone. The experiment can be described thus: Neuroprotective activity against Wistar rat Cortical neurons assessed as reduction of oxygen-glucose-deprivation-induced cell death at 1 to 10 uM treated during reperfusion measured after 24 hrs by XTT assay.
Experiment [3] has as its system Cortical neurone. The experiment can be described thus: Neuroprotective activity against Wistar rat Cortical neurons assessed as reduction of oxygen-glucose-deprivation-induced lipid peroxidation at 100 uM treated during reperfusion measured after 24 hrs by TBARS method.
The subject of experiment [4] is Cortical neurone. As to the kind of experiment: Neuroprotective activity against Wistar rat Cortical neurons assessed as reduction of oxygen-glucose-deprivation-induced mitochondrial membrane potential at 1 to 100 uM treated during reperfusion measured after 24 hrs by spectrofluorometer analysis.
The subject of experiment [5] is Cortical neurone. The experiment can be described thus: Neuroprotective activity against Wistar rat Cortical neurons assessed as reduction of oxygen-glucose-deprivation-induced cell death at 100 uM treated during reperfusion measured after 24 hrs by XTT assay. On the technique in general: Tetrazolium assays rely on reduction of a dye to a coloured formazan, in cell work by metabolically active cells.

For experiment [6], the system named is Cortical neurone. As to the kind of experiment: Neuroprotective activity against Wistar rat Cortical neurons assessed as reduction of oxygen-glucose-deprivation-induced ROS production at 1 uM treated during reperfusion measured after 24 hrs by H2DCF-DA assay.
Experiment [7] has as its system Cortical neurone. The experiment can be described thus: Neuroprotective activity against Wistar rat Cortical neurons assessed as reduction of oxygen-glucose-deprivation-induced caspase-3 activity at 1 to 100 uM treated during reperfusion measured after 24 hrs by spectrofluorometer analysis.
Experiment [8] has as its system Cortical neurone. As to the kind of experiment: Neuroprotective activity against Wistar rat Cortical neurons assessed as reduction of oxygen-glucose-deprivation-induced LDH release at 1 to 100 uM treated during reperfusion measured after 24 hrs. For orientation: LDH leaks from cells whose membrane has failed.

Activity calls are given as the source filed them. The calls are words filed in the database; no cut-off is given here.

For `COc1cc(Br)c(/C=[N+](\[O-])C(C)(C)C)cc1O`, the result in experiment [1], in experiment [5], in experiment [6], in experiment [7] and in experiment [8] was Active. The outcome in experiment [2], in experiment [3] and in experiment [4] was inactive.
